Measurements from patent US10597388B2, “Pyridazinone herbicides” (FMC CORPORATION, priority 2014, dated 2020).

Columns and labels:
Type in all cases: in vivo
[1] = tested on: foxtail, giant (giant foxtail, Setaria faberii); assay: Test C greenhouse herbicide test, pre- and postemergence
Method in brief: (§1)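 Two application timings: at sowing into a soil/sand blend, and on 2–18 cm seedlings in peat-vermiculite potting mix. A non-phytotoxic, surfactant-containing solvent carried the compounds. Plants were compared with controls and rated visually on 0–100 after 13–15 d.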

[2] = tested on: ryegrass, Italian (Italian ryegrass, Lolium multiflorum); assay: as above
Method in brief: as §1

[3] = tested on: blackgrass (Alopecurus myosuroides); assay: as above
Method in brief: as §1

soybean (Glycine max) = assay: as above
Method in brief: as §1

[4] = tested on: velvetleaf (Abutilon theophrasti); assay: as above
Method in brief: as §1

corn (Zea mays) = assay: as above
Method in brief: as §1

[5] = tested on: nutsedge, yellow (yellow nutsedge, Cyperus esculentus); assay: as above
Method in brief: as §1

[6] = tested on: crabgrass, large (large crabgrass, Digitaria sanguinalis); assay: as above
Method in brief: as §1

[7] = tested on: wheat (winter wheat, Triticum aestivum); assay: as above
Method in brief: as §1

[8] = tested on: galium (catchweed bedstraw, Galium aparine); assay: as above
Method in brief: as §1

[9] = tested on: barnyardgrass (Echinochloa crus-galli); assay: as above
Method in brief: as §1

[10] = tested on: johnsongrass (Sorghum halepense); assay: as above
Method in brief: as §1

[11] = tested on: waterhemp_RES2 (ALS & HPPD resistant common waterhemp, Amaranthus rudis); assay: Test E greenhouse herbicide test, postemergence
Method in brief: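 Formulated compounds are applied postemergence to potted waterhemp at 1–4 leaves (2–18 cm high). Plants stay in the greenhouse for 14 to 21 d before visual comparison with controls, and control is scored from 0 (none) to 100 (complete).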

[12] = Postemergence, 31 g ai/ha, 0 to 100 scale (0 no effect, 100 complete control)
[13] = Postemergence, 125 g ai/ha, scale 0 to 100, 0 is no effect, 100 is complete control
[14] = Postemergence, 250 g ai/ha, scale 0 to 100, 0 no effect, 100 complete control, 13 to 15 d
[15] = Preemergence, 31 g ai/ha, scale 0 to 100, 0 is no effect, 100 is complete control
[16] = Preemergence, 62 g ai/ha, scale 0 to 100, 0 is no effect, 100 is complete control
[17] = Preemergence, 125 g ai/ha, scale 0 to 100, 0 is no effect, 100 is complete control
[18] = Preemergence, 250 g ai/ha, scale 0 to 100, 0 no effect, 100 complete control
[19] = postemergence, 62 g ai/ha, scale 0 to 100, 0 no effect, 100 complete control

## Cc1ccc2sc(C)c(-c3c(OC(=O)OC(C)C)c(C)nn(C)c3=O)c2c1 [Compound 66]
[1]; [12]
  Foxtail, Giant plant response rating: 40
[1]; [13]
  Plant response rating, Foxtail, Giant: 65
[1]; [14]
  Plant response rating, Foxtail, Giant: 80
[1]; [15]
  Plant response rating, Foxtail, Giant: 70
[1]; [16]
  Plant response rating, Foxtail, Giant: 75
[1]; [17]
  Plant response rating, Foxtail, Giant: 80
[1]; [18]
  Foxtail, Giant plant response rating: 85
[1]; [19]
  Foxtail, Giant plant response rating: 55
[2]; [12]
  Ryegrass, Italian plant response rating: 60
[2]; [13]
  Plant response rating, Ryegrass, Italian: 85
[2]; [14]
  Plant response rating, Ryegrass, Italian: 85
[2]; [15]
  Plant response rating, Ryegrass, Italian: 55
[2]; [16]
  Plant response rating, Ryegrass, Italian: 50
[2]; [17]
  Plant response rating, Ryegrass, Italian: 80
[2]; [18]
  Ryegrass, Italian plant response rating: 90
[2]; [19]
  Ryegrass, Italian plant response rating: 80
[3]; [12]
  Blackgrass plant response rating: 10
[3]; [13]
  Plant response rating, Blackgrass: 40
[3]; [14]
  Plant response rating, Blackgrass: 60
[3]; [15]
  Plant response rating, Blackgrass: 10
[3]; [16]
  Plant response rating, Blackgrass: 30
[3]; [17]
  Plant response rating, Blackgrass: 35
[3]; [18]
  Blackgrass plant response rating: 30
[3]; [19]
  Blackgrass plant response rating: 15
Soybean (Glycine max); [12]
  Soybean plant response rating: 0
Soybean (Glycine max); [13]
  Plant response rating, Soybean: 10
Soybean (Glycine max); [14]
  Plant response rating, Soybean: 5
Soybean (Glycine max); [15]
  Plant response rating, Soybean: 0
Soybean (Glycine max); [16]
  Plant response rating, Soybean: 0
Soybean (Glycine max); [17]
  Plant response rating, Soybean: 0
Soybean (Glycine max); [18]
  Soybean plant response rating: 0
Soybean (Glycine max); [19]
  Soybean plant response rating: 10
[4]; [12]
  Velvetleaf plant response rating: 55
[4]; [13]
  Plant response rating, Velvetleaf: 85
[4]; [14]
  Plant response rating, Velvetleaf: 95
[4]; [15]
  Plant response rating, Velvetleaf: 15
[4]; [16]
  Plant response rating, Velvetleaf: 60
[4]; [17]
  Plant response rating, Velvetleaf: 70
[4]; [18]
  Velvetleaf plant response rating: 85
[4]; [19]
  Velvetleaf plant response rating: 75
Corn (Zea mays); [12]
  Corn plant response rating: 0
Corn (Zea mays); [13]
  Plant response rating, Corn: 5
Corn (Zea mays); [14]
  Plant response rating, Corn: 25
Corn (Zea mays); [15]
  Plant response rating, Corn: 0
Corn (Zea mays); [16]
  Plant response rating, Corn: 0
Corn (Zea mays); [17]
  Plant response rating, Corn: 0
Corn (Zea mays); [18]
  Corn plant response rating: 0
Corn (Zea mays); [19]
  Corn plant response rating: 0
[5]; [12]
  Nutsedge, Yellow plant response rating: 65
[5]; [13]
  Plant response rating, Nutsedge, Yellow: 85
[5]; [14]
  Plant response rating, Nutsedge, Yellow: 85
[5]; [15]
  Plant response rating, Nutsedge, Yellow: 35
[5]; [16]
  Plant response rating, Nutsedge, Yellow: 35
[5]; [17]
  Plant response rating, Nutsedge, Yellow: 30
[5]; [18]
  Nutsedge, Yellow plant response rating: 65
[5]; [19]
  Nutsedge, Yellow plant response rating: 70
[6]; [12]
  Crabgrass, Large plant response rating: 25
[6]; [13]
  Plant response rating, Crabgrass, Large: 35
[6]; [14]
  Plant response rating, Crabgrass, Large: 45
[6]; [15]
  Plant response rating, Crabgrass, Large: 75
[6]; [16]
  Plant response rating, Crabgrass, Large: 65
[6]; [17]
  Plant response rating, Crabgrass, Large: 75
[6]; [18]
  Crabgrass, Large plant response rating: 85
[6]; [19]
  Crabgrass, Large plant response rating: 30
[7]; [12]
  Wheat plant response rating: 0
[7]; [13]
  Plant response rating, Wheat: 0
[7]; [14]
  Plant response rating, Wheat: 0
[7]; [15]
  Plant response rating, Wheat: 0
[7]; [16]
  Plant response rating, Wheat: 0
[7]; [17]
  Plant response rating, Wheat: 0
[7]; [18]
  Wheat plant response rating: 40
[7]; [19]
  Wheat plant response rating: 0
[8]; [12]
  Galium plant response rating: 90
[8]; [13]
  Plant response rating, Galium: 95
[8]; [14]
  Plant response rating, Galium: 95
[8]; [15]
  Plant response rating, Galium: 90
[8]; [16]
  Plant response rating, Galium: 90
[8]; [17]
  Plant response rating, Galium: 95
[8]; [18]
  Galium plant response rating: 98
[8]; [19]
  Galium plant response rating: 95
[9]; [12]
  Barnyardgrass plant response rating: 15
[9]; [13]
  Plant response rating, Barnyardgrass: 30
[9]; [14]
  Plant response rating, Barnyardgrass: 35
[9]; [15]
  Plant response rating, Barnyardgrass: 0
[9]; [16]
  Plant response rating, Barnyardgrass: 20
[9]; [17]
  Plant response rating, Barnyardgrass: 40
[9]; [18]
  Barnyardgrass plant response rating: 70
[9]; [19]
  Barnyardgrass plant response rating: 20
[10]; [12]
  Johnsongrass plant response rating: 5
[10]; [13]
  Plant response rating, Johnsongrass: 5
[10]; [14]
  Plant response rating, Johnsongrass: 15
[10]; [15]
  Plant response rating, Johnsongrass: 10
[10]; [16]
  Plant response rating, Johnsongrass: 25
[10]; [17]
  Plant response rating, Johnsongrass: 55
[10]; [18]
  Johnsongrass plant response rating: 65
[10]; [19]
  Johnsongrass plant response rating: 5
[11]; 16 g ai/ha, visual, scale 0 no effect to 100 complete control
  Plant response rating, Waterhemp_RES2: 40
[11]; 31 g ai/ha, visual, scale 0 no effect to 100 complete control
  Plant response rating, Waterhemp_RES2: 40
[11]; 62 g ai/ha, scale 0 to 100 (0 no effect, 100 complete control)
  Plant response rating, Waterhemp_RES2: 40
[11]; 125 g ai/ha, scale 0 to 100 (0 no effect, 100 complete control)
  Plant response rating, Waterhemp_RES2: 50
